Measurements taken from patent publication US9556165B2 (priority 2012, dated 2017).
In brackets after ≈: the same amount, converted by molar mass. Like-named read-outs stand apart in the source and are kept apart here.

Columns and labels:
Type in all cases: cell-based
H. influenzae ATCC 49247 = experiment: MIC determination, broth microdilution (CLSI); conditions: Haemophilus influenzae, ATCC49247, strain 12; broth microdilution; read-out: MIC strain 12 (H. influenzae ATCC 49247)
[1] = test system: P. aeruginosa 2297 (AmpC wt); experiment: MIC determination, broth microdilution (CLSI); conditions: for MIC: Pseudomonas aeruginosa, strain 7
E. coli ATCC25922 = experiment: MIC determination, broth microdilution (CLSI); conditions: for MIC: Escherichia coli, ATCC25922, strain 1
C. perfringens DSM756 = experiment: microbe, parasite or virus in culture; conditions: Clostridium perfringens, DSM756, read-out: MIC strain 16 (C. perfringens DSM756), strain 16; broth microdilution
K. pneumoniae 60 = experiment: MIC determination, broth microdilution (CLSI); conditions: for MIC: Klebsiella pneumoniae, 60, strain 2
S. pneumoniae 113 = experiment: MIC determination, broth microdilution (CLSI); conditions: Streptococcus pneumoniae, 113, strain 13; broth microdilution; read-out: MIC strain 13 (S. pneumoniae 113)
M. morganii 126/3048 = experiment: MIC determination, broth microdilution (CLSI); conditions: for MIC: Morganella morganii, 126/3048, strain 5
C. freundii K21/3034 = experiment: MIC determination, broth microdilution (CLSI); conditions: for MIC: Citrobacter freundii, K21/3034, strain 4
E. coli J62-TEM-3 = experiment: MIC determination, broth microdilution (CLSI); conditions: broth microdilution; for MIC: Escherichia coli, J62TEM3, read-out: MIC strain 18 (E. coli J62-TEM-3), strain 18
A. baumannii ATCC15308 = experiment: MIC determination, broth microdilution (CLSI); conditions: for MIC: Acinetobacter baumannii, ATCC15308, strain 9
S. aureus 133 = experiment: MIC determination, broth microdilution (CLSI)
S. maltophilia ICB7569 = experiment: MIC determination, broth microdilution (CLSI); conditions: for MIC: Stenotrophomonas maltophilia, ICB7569, strain 10
Bacteria = experiment: MIC determination in combination with β-lactamase inhibitors (constant 4 μg/mL)
[2] = test system: P. aeruginosa 2297-con (AmpC derepressed); experiment: MIC determination, broth microdilution (CLSI); conditions: for MIC: Pseudomonas aeruginosa, read-out: strain 8 MIC, strain 8
E. coli J62 = experiment: MIC determination, broth microdilution (CLSI); conditions: broth microdilution; for MIC: Escherichia coli, J62, strain 17, read-out: MIC strain 17 (E. coli J62)
E. cloacae 34654 = experiment: MIC determination, broth microdilution (CLSI); conditions: for MIC: Enterobacter cloacae, 34654, strain 3
B. fragilis 6688 = experiment: MIC determination, broth microdilution (CLSI); conditions: Bacteroides fragilis, 6688, strain 15; broth microdilution; read-out: MIC strain 15 (B. fragilis 6688)
P. aeruginosa PAO1 = experiment: MIC determination, broth microdilution (CLSI); conditions: for MIC: Pseudomonas aeruginosa, PAO1, strain 6
[3] = Staphylococcus aureus, 133, strain 11, read-out: strain 11 MIC
[4] = Staphylococcus aureus, 133, strain 14, broth microdilution, read-out: MIC strain 14 (S. aureus 133)

Structure (SMILES)	MIC (H. influenzae ATCC 49247) [µg/mL]	MIC [1] [µg/mL]	MIC (E. coli ATCC25922) [µg/mL]	MIC (C. perfringens DSM756) [µg/mL]	MIC (K. pneumoniae 60) [µg/mL]	MIC (S. pneumoniae 113) [µg/mL]	MIC (M. morganii 126/3048) [µg/mL]	MIC (C. freundii K21/3034) [µg/mL]	MIC (E. coli J62-TEM-3) [µg/mL]	MIC (A. baumannii ATCC15308) [µg/mL]	MIC (S. aureus 133; [3]) [µg/mL]	MIC (S. aureus 133; [4]) [µg/mL]	MIC (S. maltophilia ICB7569) [µg/mL]	MIC strain 19 (E. coli J62-TEM-3 + 4 μg/mL clavulanic acid) (Bacteria)	MIC strain 20 (E. coli J62-TEM-3 + 4 μg/mL sulbactam) (Bacteria)	MIC strain 21 (E. coli J62-TEM-3 + 4 μg/mL tazobactam) (Bacteria)	MIC [2] [µg/mL]	MIC (E. coli J62) [µg/mL]	MIC (E. cloacae 34654) [µg/mL]	MIC (B. fragilis 6688) [µg/mL]	further results
C[C@H]1[C@H](NC(=O)/C(=N\OCCOc2ccc(C(=N)N)cc2)c2nc(N)sc2Cl)C(=O)N1S(=O)(=O)O [Example 61, (2S,3S)-3-{[(2Z)-2-(2-Amino-5-chloro-1,3-thiazol-4-yl)-2-{[2-(4-carbamimidoylphenoxy)ethoxy]imino}acetyl]amino}-2-methyl-4-oxoazetidine-1-sulfonic acid]	0.25 (≈ 0.458 µM)	2 (≈ 3.66 µM)	2 (≈ 3.66 µM)	8 (≈ 14.7 µM)	2 (≈ 3.66 µM)	≤ 0.063	0.5 (≈ 0.916 µM)	1 (≈ 1.83 µM)	8 (≈ 14.7 µM)	2 (≈ 3.66 µM)	≤ 0.063	8 (≈ 14.7 µM)	16 (≈ 29.3 µM)	2 µg/mL	2 µg/mL	2 µg/mL	16 (≈ 29.3 µM)	2 (≈ 3.66 µM)	2 (≈ 3.66 µM)	8 (≈ 14.7 µM)	MIC (P. aeruginosa PAO1): 2 µg/mL (≈ 3.66 µM)
CC1(C)[C@H](NC(=O)/C(=N\O[C@@H](COc2ccc(C(=N)N[C@@H]3CCCNC3)cc2)C(=O)O)c2csc(N)n2)C(=O)N1OS(=O)(=O)O [Example 88, (2S)-2-({[(1Z)-1-(2-Amino-1,3-thiazol-4-yl)-2-{[(3S)-2,2-dimethyl-4-oxo-1-(sulfooxy)azetidin-3-yl]amino}-2-oxoethylidene]amino}oxy)-3-(4-{N-[(3R)-piperidin-3-yl]carbamimidoyl}phenoxy)propanoic acid]	≤ 0.063	1 (≈ 1.5 µM)	≤ 0.063	0.5 (≈ 0.748 µM)	0.125 (≈ 0.187 µM)	0.5 (≈ 0.748 µM)	≤ 0.063	≤ 0.063	2 (≈ 2.99 µM)	2 (≈ 2.99 µM)		32 (≈ 47.9 µM)	4 (≈ 5.98 µM)	≦0.063 mg/L	≦0.063 mg/L	≦0.063 mg/L	1 (≈ 1.5 µM)	0.125 (≈ 0.187 µM)	≤ 0.063	8 (≈ 12 µM)	MIC (P. aeruginosa PAO1): 1 µg/mL (≈ 1.5 µM)
CC1(C)[C@H](NC(=O)/C(=N\OC(CO)COc2ccc(C(=N)N)cc2)c2csc(N)n2)C(=O)N1OS(=O)(=O)O (mixture of isomers) [Example 45B, (2Z)-2-(2-Amino-1,3-thiazol-4-yl)-2-({[(2R and 2S)-1-(4-carbamimidoylphenoxy)-3-hydroxypropan-2-yl]oxy}imino)-N-[(3S)-2,2-dimethyl-4-oxo-1-(sulfooxy)azetidin-3-yl]ethanamide]	0.5			2		0.125					≤ 0.063			2 µg/mL	4 µg/mL	4 µg/mL				4	strain 7 MIC [1]: 32 µg/mL; strain 1 MIC (E. coli ATCC25922; strain 1): 2 µg/mL; strain 2 MIC (K. pneumoniae 60; strain 2): 2 µg/mL; strain 5 MIC (M. morganii 126/3048; strain 5): 4 µg/mL; strain 4 MIC (C. freundii K21/3034; strain 4): 1 µg/mL; MIC strain 18 (E. coli J62-TEM-3) (E. coli J62-TEM-3; strain 18): 16 µg/mL; strain 9 MIC (A. baumannii ATCC15308; strain 9): 4 µg/mL; MIC strain 14 (S. aureus 133) (S. aureus 133; strain 14, broth microdilution): 16 µg/mL; strain 10 MIC (S. maltophilia ICB7569; strain 10): 32 µg/mL; strain 8 MIC ([2]; strain 8): 32 µg/mL; MIC strain 17 (E. coli J62) (E. coli J62; strain 17): 4 µg/mL; strain 3 MIC (E. cloacae 34654; strain 3): 4 µg/mL; strain 6 MIC (P. aeruginosa PAO1; strain 6): 16 µg/mL
CC1(C)[C@H](NC(=O)/C(=N\O[C@@H](COc2ccc(C(=N)NCC3CCCCN3)cc2)C(=O)O)c2csc(N)n2)C(=O)N1OS(=O)(=O)O (stereo partly drawn) [Example 99, (2S)-2-({[(1Z)-1-(2-Amino-1,3-thiazol-4-yl)-2-{[(3S)-2,2-dimethyl-4-oxo-1-(sulfooxy)-azetidin-3-yl]amino}-2-oxoethylidene]amino}oxy)-3-{4-[N-(piperidin-2-ylmethyl)carbamimidoyl]phenoxy}propanoic acid]	≤ 0.063	2 (≈ 2.93 µM)	0.125 (≈ 0.183 µM)	0.5 (≈ 0.732 µM)	0.25 (≈ 0.366 µM)	0.5 (≈ 0.732 µM)	≤ 0.063	0.125 (≈ 0.183 µM)	4 (≈ 5.86 µM)	2 (≈ 2.93 µM)	≤ 0.063	32 (≈ 46.9 µM)	4 (≈ 5.86 µM)	0.125 µg/mL	0.125 µg/mL	0.25 µg/mL	2 (≈ 2.93 µM)	0.25 (≈ 0.366 µM)	0.25 (≈ 0.366 µM)	8 (≈ 11.7 µM)	MIC (P. aeruginosa PAO1): 2 µg/mL (≈ 2.93 µM)
CC1(C)[C@H](NC(=O)/C(=N\OCCOc2ccc(C(=N)N[C@H](CN)CO)cc2)c2csc(N)n2)C(=O)N1OS(=O)(=O)O [Example 85, (2Z)-2-{[2-(4-{N-[(2R)-1-Amino-3-hydroxypropan-2-yl]carbamimidoyl}phenoxy)ethoxy]imino}-2-(2-amino-1,3-thiazol-4-yl)-N-[(3S)-2,2-dimethyl-4-oxo-1-(sulfooxy)azetidin-3-yl]ethanamide]	≤ 0.063	8 (≈ 13 µM)	0.25 (≈ 0.407 µM)	4 (≈ 6.51 µM)	0.5 (≈ 0.813 µM)	≤ 0.063	0.25 (≈ 0.407 µM)	0.25 (≈ 0.407 µM)	8 (≈ 13 µM)	2 (≈ 3.25 µM)	≤ 0.063	8 (≈ 13 µM)	32 (≈ 52.1 µM)	0.25 µg/mL	0.25 µg/mL	0.5 µg/mL	8 (≈ 13 µM)	0.5 (≈ 0.813 µM)	0.5 (≈ 0.813 µM)	4 (≈ 6.51 µM)	MIC (P. aeruginosa PAO1): 4 µg/mL (≈ 6.51 µM)
